{
  "source": "patent US20250339387A1",
  "about": "“MITOXANTHRONE DERIVATIVES AS RAS INHIBITORS” (KHR Biotec GmbH, priority 2022, published 2025)",
  "type_in_all_cases": "cell-based",
  "key": {"[1]": {"test_system": "KRAS mutants (G12V, G12C, G12D, G12C/Y96D, G13C, G13D, G13S, Q61K and Q61R)", "experiment": "NanoBiT assay for RAS GTP-loading in HeLa cells, LgBit-KRAS mutants and SmBit-CRAF-RBD", "details": "2 h in serum-free DMEM, normalized to DMSO", "description": "NanoBiT assay for the RAS GTP-loading was performed in HeLa cells transfected with LgBit-KRAS mutants and SmBit-CRAF-RBD. Cells were treated with Mitoxantrone HCl for 2 h in serum-free DMEM. After incubation, the substrate for NanoLuc was added, and the luminescence was measured in a multiplate reader. Data were normalized to cells transfected with the indicated mutant and exposed to DMSO for 2 h. DMSO-treated cells were set as 1. The bars represent mean±SEM from 3 independent experiments."}, "[2]": {"molecular_target": "T1, NRAS G12V (Homo sapiens, UniProt P01111, G12V)", "T1 construct": "K, N and HRAS G12V (full length) was cloned with Xho I and Bgl Ito LgBit; expressed in transfected cells", "T1 sequence (P01111 whole entry G12V)": "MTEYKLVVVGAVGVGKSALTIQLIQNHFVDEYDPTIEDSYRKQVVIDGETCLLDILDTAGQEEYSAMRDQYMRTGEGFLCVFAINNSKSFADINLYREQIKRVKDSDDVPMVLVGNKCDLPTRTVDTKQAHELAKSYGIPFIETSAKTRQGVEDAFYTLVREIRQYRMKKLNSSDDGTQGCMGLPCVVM", "experiment": "NanoBit assay for RAS activation (LgBiT-RAS / SmBiT-CRAF RBD)", "details": "2 h with inhibitor in serum free DMEM", "description": "(§1) N-terminal LgBiT and C-terminal SmBiT construct was purchased from Promega and K, N and HRAS G12V (full length) was cloned with Xho I and Bgl Ito LgBit and CRAF Ras binding domain (1-149) was cloned with EcoRI and Bgl II to SmBit. For transfections, 1 μg or 2 μg of (12 well/6 well) plasmids were transfected into cells with 0.5 mM of PEI reagent in 100 μl or 200 μl PBS. One day after transfection, cells were harvested and seeded into 96 well white plates, half area (Greiner). After an additional day the medium was changed to serum free DMEM and the cells were incubated for 2 h with inhibitor. NanoGlo assay was performed according to the manufacturer's instructions. The luminescence was measured using Tecan infinite (Tecan)."}, "[3]": {"molecular_target": "T2, HRAS G12V (Homo sapiens, UniProt P01112, G12V)", "T2 construct": "K, N and HRAS G12V (full length) was cloned with Xho I and Bgl Ito LgBit; expressed in transfected cells", "experiment": "NanoBit assay for RAS activation (LgBiT-RAS / SmBiT-CRAF RBD)", "details": "2 h with inhibitor in serum free DMEM", "description": "as §1"}, "[4]": {"molecular_target": "T3, KRAS G12V (Homo sapiens, UniProt P01116, G12V)", "T3 construct": "K, N and HRAS G12V (full length) was cloned with Xho I and Bgl Ito LgBit; expressed in transfected cells", "experiment": "NanoBit assay for RAS activation (LgBiT-RAS / SmBiT-CRAF RBD)", "details": "2 h with inhibitor in serum free DMEM", "description": "as §1"}, "[5]": {"test_system": "sNF96.2 cells", "experiment": "RASOpathie-Model, MTT assay for cell viability in 96 well cell culture plate", "details": "48 h treatment", "description": "FIG. 5: RASOpathie-Model of Mitoxantrone HCl; MTT assay for cell viability in 96 well cell culture plate\nCells were treated with Mitoxantrone HCl for 48 h and cell viability was evaluated by MTT assay. DMSO-treated cells were set as 1. The results shown are mean±SEM from 3 independent experiments."}, "[6]": {"test_system": "NCI-H2122 cells", "experiment": "Soft agar colony formation assay with MTT readout", "details": "Homo sapiens, growth in soft agar, colonies stained with MTT, absorbance 570 nm, 3 independent experiments", "description": "(§2) Metabolic activity was quantified using Cell Proliferation Kit I (Roche, Basel, Switzerland). Cells were seeded in 96-well cell culture plates, using 5000 cells per well for NCI-H358 cells. After treatment, 10 μl of MTT solution was added and incubated for 2 h in CO2 incubator. Then 100 μl of solubilization buffer was added to each well and incubated overnight in CO2 incubator. Cell viability, assessed by the amount of metabolized MTT, was quantified by measuring absorbance at 570 nm.\n(§3) MTT assay for the growth of different tumor cell lines with RAS mutations in soft agar with Mitoxantrone hydrochloride. Shown are data from three independent experiments. NCI-H358, H358, H2122, ASPC-1, HCT-116, T24 and HT1080 cells were used for the soft agar colony formation assay. After the treatment with Mitoxantrone HCl, the colonies were stained with MTT and the value was quantified by measuring absorbance at 570 nm after solubilization. The results represent mean±SEM from 3 independent experiments."}, "[7]": {"test_system": "NCI-H358 cells", "experiment": "Soft agar colony formation assay with MTT readout", "details": "Homo sapiens, growth in soft agar, colonies stained with MTT, absorbance 570 nm, 3 independent experiments", "description": "as §2, §3"}, "[8]": {"test_system": "HT1080 cells", "experiment": "Soft agar colony formation assay with MTT readout", "details": "Homo sapiens, HT-1080; growth in soft agar, colonies stained with MTT, absorbance 570 nm, 3 independent experiments", "description": "as §2, §3"}, "[9]": {"test_system": "HCT-116 cells", "experiment": "Soft agar colony formation assay with MTT readout", "details": "Homo sapiens, growth in soft agar, colonies stained with MTT, absorbance 570 nm, 3 independent experiments", "description": "as §2, §3"}, "[10]": {"test_system": "T24 cells", "experiment": "Soft agar colony formation assay with MTT readout", "details": "Homo sapiens; growth in soft agar, colonies stained with MTT, absorbance 570 nm, 3 independent experiments", "description": "as §2, §3"}, "[11]": {"test_system": "ASPC1 cells", "experiment": "Soft agar colony formation assay with MTT readout", "details": "Homo sapiens, growth in soft agar, colonies stained with MTT, absorbance 570 nm, 3 independent experiments", "description": "as §2, §3"}, "[12]": {"test_system": "BaF3 KRAS G12C/Y96D cells", "experiment": "MTT assay for cell viability in 96 well cell culture plate", "details": "Mus musculus, 48 h treatment"}, "[13]": {"test_system": "BaF3 KRAS G12C cells", "experiment": "MTT assay for cell viability in 96 well cell culture plate", "details": "Mus musculus, 48 h treatment"}},
  "data": [
    {"smiles": "Cl.Cl.O=C1c2c(O)ccc(O)c2C(=O)c2c(NCCNCCO)ccc(NCCNCCO)c21", "note": "[Mitoxantrone HCl, 1,4-dihydroxy-5,8-bis({2-[(2-hydroxy-ethyl)amino]ethyl}amino)-9,10-anthrachinone dihydrochloride]", "values": [
      {"measurement": "RAS activation / GTP-loading of KRAS mutants (NanoBiT luminescence)", "setting": "[1]", "value": "inhibits"},
      {"measurement": "RAS activation, N-RAS (NanoBit luminescence)", "setting": "[2]", "value": "inhibits"},
      {"measurement": "RAS activation, H-RAS (NanoBit luminescence)", "setting": "[3]", "value": "inhibits"},
      {"measurement": "RAS activation, K-RAS (NanoBit luminescence)", "setting": "[4]", "value": "inhibits"},
      {"measurement": "IC50", "setting": "[5]", "value": 3.71, "unit": "µM"},
      {"measurement": "IC50", "setting": "[6]", "value": 0.25, "unit": "µM"},
      {"measurement": "IC50", "setting": "[7]", "value": 1.5, "unit": "µM"},
      {"measurement": "IC50", "setting": "[8]", "value": 0.13, "unit": "µM"},
      {"measurement": "IC50", "setting": "[9]", "value": 0.27, "unit": "µM"},
      {"measurement": "IC50", "setting": "[10]", "value": 0.43, "unit": "µM"},
      {"measurement": "IC50", "setting": "[11]", "value": 0.6, "unit": "µM"},
      {"measurement": "IC50", "setting": "[12]", "value": 24, "unit": "µM"},
      {"measurement": "IC50", "setting": "[13]", "value": 24.2, "unit": "µM"}
    ]}
  ]
}
